Data set [1] has as its system Neonatal foreskin fibroblasts (NFF). The experiment in a line: Normal cell toxicity, MTT proliferation assay, NFF. It counts as cell-based, human. As for the experimental part:
Neonatal foreskin fibroblasts (NFF) were a gift from Dr. Peter Parsons (Queensland Institute of Medical Research). RK-13 (rabbit kidney) cells were obtained from Miller Whalley (Macquarie University). Both cell types were cultured in RPMI supplemented with 10% FCS (CSL, Australia), penicillin (100 U/ml), streptomycin ([…]), L-glutamine (2 mM) and sodium bicarbonate (1.2 g/L), and cultured at 37° C. in a humidified atmosphere of 5% CO2.
(§1) IC50 values were determined for each cell line. Cells were seeded in 96-well plates at an appropriate cell density as determined from growth kinetics analysis. NFFs were cultured for 5 days and RK-13s for 24 hrs in the absence and presence of the test compounds. Cell proliferation was assessed after the addition of 20 μl of 3-4,5 dimethylthiazol-2,5-diphenyl tetrazolium bromide (MTT, 2.5 mg/ml in PBS, Sigma) for 3-4 hrs at 37° C. according to manufacturer's instructions. IC50 values were calculated from semi-log plots of % of control proliferation on the y-axis against log dose on the x-axis.
Duplicate cytotoxicity assays against NFF cells were conducted with dehydroequol (DHE), 4,9-dihydroxy-14,15-dimethoxy-12a-(3′,4′-dimethoxyphenyl)-3,10-dimethyl-2,11-dioxa-(1H,12H)-6b,6c,12a,16b-tetrahydronaphtho[1,2-g]chrysene (2) from Example 6.1 and cisplatin.
(In general: Tetrazolium dyes change colour on reduction, which living cells bring about.)

Data set [2] has as its system LNCaP (Prostate). The data set can be described thus: In vitro cytotoxicity, MTT proliferation assay, LNCaP. The format is cell-based, human. As to conditions: Homo sapiens. On the procedure:
(§2) The human pancreatic cancer cell line, HPAC (CRL-2119) was routinely cultured in 1:1 mixture DMEM (Sigma) plus Ham's F12 (Sigma) medium containing HEPES (15 mM), insulin (0.002 mg/ml), transferrin (0.005 mg/ml), hydrocortisone, (40 ng/ml), epidermal growth factor (10 ng/ml). The ovarian cancer cell line CP70 was obtained as a gift from Dr. Gil Mor (Yale University) and cultured in a 1:1 mixture DMEM plus Ham's F12 medium, and SKOV-3 was purchased from ATCC and cultured in McCoy's 5a medium. The breast cancer cell line MDA-MB-468 cultured in Leibovitz's L-15 medium.
(§3) All cultures were supplemented with 10% FCS(CSL, Australia), penicillin (100 U/ml), streptomycin ([…]), L-glutamine (2 mM) and sodium bicarbonate (1.2 g/L), and cultured at 37° C. in a humidified atmosphere of 5% CO2. All remaining cell lines were purchased from ATCC (Maryland, USA) except where noted.
as §1

Data set [3] concerns human pancreatic cancer cell line, HPAC (CRL-2119). The experiment in a line: In vitro cytotoxicity, MTT proliferation assay, CRL-2119. It counts as cell-based. The conditions noted are these: Homo sapiens, HPAC; Pancreatic CRL-2119. On the procedure: as §2, §3, §1
Data set [4] has as its system NCI-H23 (Lung). The data set can be described thus: In vitro cytotoxicity, MTT proliferation assay, NCI-H23. As to conditions: Homo sapiens. The format is cell-based. On the procedure:
as §2, §3
IC50 values were determined for each cell line. Cells were seeded in 96-well plates at an appropriate cell density as determined from growth kinetics analysis. […] Cell proliferation was assessed after the addition of 20 μl of 3-4,5 dimethylthiazol-2,5-diphenyl tetrazolium bromide (MTT, 2.5 mg/ml in PBS, Sigma) for 3-4 hrs at 37° C. according to manufacturer's instructions. IC50 values were calculated from semi-log plots of % of control proliferation on the y-axis against log dose on the x-axis.

The subject of data set [5] is HPAC (Pancreatic) cells. The data set can be described thus: Chemosensitisation, combination with antineoplastic agent, HPAC. The format is cell-based, human. On the procedure:
(§4) The utility of the dimeric compounds of the invention to act as a chemosensitiser when used in combination with an array of standard chemotherapeutic agents was assessed. Dimeric Cpd. 2 was applied to various colorectal and pancreatic cancer cell lines to investigate its synergy with standard chemotherapeutic agents including cisplatin, gemcitabine, paclitaxel, doxorubicin, camptothecin and topotecan.
(§5) The experiment as outlined in SOP-BD011 (Versions A and B) was used to screen three antineoplastic agents against a given cell line in any ‘one’ experiment (see for example Kanzawa et al., (1997)). The inherent design of the experiment allowed for three sequences of Cpd. 2 and an antineoplastic agent. • 1) Direct Sequence—Cells are treated with both Cpd. 2 and a single antineoplastic agent (combined) for 5 days. • 2) Cpd. 2 First (Forward) Sequence—Cells are treated for 24 hours with Cpd. 2 before replacing with a 24 hour antineoplastic agent treatment; drugs are then washed out and processed on Day 5. • 3) Reverse Sequence—The reverse order to experiment No. 2 above. i.e. a cytotoxin first sequence Results and Conclusions
All data was evaluated using the formulae of theoretic additivity incorporated into a three dimensional model, as described by Kanzawa et al. (1997). […]

Data set [6] deals with HT-29 (Colorectal) cells. The experiment in a line: Chemosensitisation, combination with antineoplastic agent, HT-29. The format is cell-based, human. As to conditions: for synergy with Paclitaxel: Cpd. 2 1 μM and 2 μM. As for the experimental part:
as §4, §5
All data was evaluated using the formulae of theoretic additivity incorporated into a three dimensional model, as described by Kanzawa et al. (1997). This allows for simple data interpretation as values in excess of 10% are defined as ‘synergistic’ (depicted in grey) whilst those below −10% are defined as ‘antagonistic’ (depicted in black).

Data set [7] concerns splenocytes. The experiment in a line: Murine splenocyte proliferation with mitogens (MTT), 3 day incubation with compound. It counts as cell-based, Male Skh-1 (hairless) mice. As for the experimental part:
Male Skh-1 (hairless) mice, six weeks old were killed by cervical dislocation. Single cell suspensions were made from their spleens and erythrocytes were lysed in buffer (0.14M NH4Cl, 17 mM Tris, pH 7.2). The remaining splenocytes were cultured in RPMI-1640 (Gibco) supplemented with 10% (v:v) FBS, 200 mM L-glutamine, penicillin/streptomycin and […] 2-mercaptoethanol. […] Samples were analysed after a 3 day incubation at 37° C. in 5% CO2 in air. To assess cell numbers, methylthiazoletetrazolium (MTT) was added to each well, incubated for a further 4 hrs and then colour developed with 0.04N HCl in isopropanol (Mosmann 1983). Plates were read at 570 nm and 630 nm. The compounds were examined several times using different mice. For each assay, the effect of test compound was compared with that of vehicle control, and the results compared using a student's t test (Prism). Statistically significant difference was determined to have occurred when p<0.05.

A short description of data set [8]: Toxicity study, i/p administration in mice. As to conditions: 50 mg/kg i/p daily. It counts as in vivo. As for the experimental part:
In a small study, BALB/cnu/nu mice were administered with either Compound 2 (n=2) as a solution in 6% Tween 20:PBS at 50 mg/kg or an equivalent volume of vehicle (n=2), by i/p injection. Mice were weighed and observed for signs of toxicity daily using clinical monitoring sheets. On day 9, mice were killed by cervical dislocation, and the kidney, spleen and liver of each mouse were collected for histological assessment of toxicity.

In the case of `COc1ccc(C23COc4c(ccc(O)c4C)C2C2c4ccc(O)c(C)c4OCC2c2cc(OC)c(OC)cc23)cc1OC` (centres unmarked) [Cpd. 2, 4,9-Dihydroxy-14,15-dimethoxy-12a-(3′,4′-dimethoxyphenyl)-3,10-dimethyl-2,11-dioxa-(1H,12H)-6b,6c,12a,16b-tetrahydronaphtho[1,2-g]chrysene], the IC50 – broadly, the concentration needed to halve the response being measured – in data set [1] (Homo sapiens, 120 h, NFF fibroblast, cultured 5 days, MTT) was 23.6 ± 6.6 µM; in data set [2] it was 12 ± 4.3 µM; in data set [3], 11.2 ± 4.7 µM; in data set [4], 16.4 µM. For the same compound, the “toxicity to normal cells relative to cisplatin and dehydroequol” value in data set [1] (normal cells (NFF, rabbit kidney)) is on record as “less toxic to normal cells than cisplatin, but more toxic than dehydroequol”. In addition, the “synergy with Gemcitabine” value in data set [5] (Cpd. 2 concentrations greater than 5 μM) was “Synergy was not observed”; in data set [5] (simultaneously (A) or 24 hour sequences (B,C)) it was “synergistic cytotoxicity”; in data set [6] (forward (A) and reverse (B) sequences, Cpd. 2 5 μM and 10 μM) it was “synergistic cytotoxicity”. The “synergy with Doxorubicin” value is given as “no synergy” in data set [6] (Doxorubicin first (C)); “strong synergistic cytotoxicity” in data set [6] (combination (A) and forward (B) sequences). Further, the “synergy with Paclitaxel” value in data set [6] (combination (A)) is recorded as “strong synergy”; in data set [6] (forward (B) and reverse (C) 24 hour sequences), “Less significant regions of synergy”. Besides, the “effect on splenocyte proliferation” value in data set [7] (10 μM, four different assays) was “no consistent trend”. Besides, the “proliferation compared with vehicle control” value in data set [7] (higher concentrations (than 10 μM), regardless of mitogenic stimulation) is “reduced proliferation”. Moreover, the “body weight gain vs vehicle” value in data set [8] (9 days) was “no difference”. The clinical signs result in data set [8] (9 days) is recorded as “no abnormal clinical signs”. In addition, the “histological assessment of toxicity (kidney, spleen, liver)” value in data set [8] (day 9) is “no histological evidence of toxicity”.

The values above are taken from patent publication US7700644B2, “Isoflavonoid dimers” (Novogen Research Pty Ltd, priority 2005, dated 2010).
